Measurements as given in the supplement of paper PMC13207355.

Experiments:
Details in all cases: exposure time: 72 h
E57 [1] = patient-derived glioblastoma stem cells of mesenchymal subtype; test: surviving fraction (nuclei count normalised to DMSO); higher = more cells surviving (less toxic)
E21 [2] = patient-derived glioblastoma stem cells of mesenchymal subtype; test: as above
FT3469 [3] = normal neural stem cell line; test: as above
E13 [4] = patient-derived glioblastoma stem cells of classical subtype; test: as above
E34 [5] = patient-derived glioblastoma stem cells of proneural subtype; test: as above
E28 [6] = patient-derived glioblastoma stem cells of classical subtype; test: as above
E31 [7] = patient-derived glioblastoma stem cells of proneural subtype; test: as above
E57 [8] = test: phenotypic distance (Euclidean, principal components) from DMSO controls (arbitrary units); higher = stronger morphological change
E21 [9] = test: as above
FT3469 [10] = test: as above
E13 [11] = test: as above
E34 [12] = test: as above
E28 [13] = test: as above
E31 [14] = test: as above
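Throughout, for phenotypic distance (Euclidean, principal components) from DMSO controls: cell Painting imaging in 384-well plates, CellProfiler features reduced to at least 20 principal components, Euclidean distance versus same-plate DMSO vehicle wells (0.1% v/v), median over six images per well.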
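Throughout, for surviving fraction (nuclei count normalised to DMSO): nuclei counted by high-content imaging of Hoechst-stained cells in laminin-coated 384-well plates, relative to 0.1% DMSO vehicle wells, with staurosporine as cell-death control.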

O=c1[nH]c(=O)n([C@H]2C[C@H](O)[C@@H](CO)O2)cc1I [Idoxuridine]
Details | phenotypic distance | surviving fraction
E13 [4], 4.1 nM | – | 0.99
E13 [4], 12.3 nM | – | 0.847
E13 [4], 37 nM | – | 0.893
E13 [4], 111.1 nM | – | 0.967
E13 [4], 333.3 nM | – | 0.953
E13 [4], 1000 nM | – | 1.02
E13 [4], 3000 nM | – | 1.06
E13 [11], 4.1 nM | 1.19 | –
E13 [11], 12.3 nM | 1.08 | –
E13 [11], 37 nM | 1.53 | –
E13 [11], 111.1 nM | 0.919 | –
E13 [11], 333.3 nM | 0.742 | –
E13 [11], 1000 nM | 1.06 | –
E13 [11], 3000 nM | 0.576 | –
E21 [2], 4.1 nM | – | 0.958
E21 [2], 12.3 nM | – | 0.967
E21 [2], 37 nM | – | 1
E21 [2], 111.1 nM | – | 0.893
E21 [2], 333.3 nM | – | 1.01
E21 [2], 1000 nM | – | 0.969
E21 [2], 3000 nM | – | 0.986
E21 [9], 4.1 nM | 0.811 | –
E21 [9], 12.3 nM | 1.68 | –
E21 [9], 37 nM | 1.77 | –
E21 [9], 111.1 nM | 0.694 | –
E21 [9], 333.3 nM | 1.11 | –
E21 [9], 1000 nM | 1.12 | –
E21 [9], 3000 nM | 1.56 | –
E28 [6], 4.1 nM | – | 1.11
E28 [6], 12.3 nM | – | 0.859
E28 [6], 37 nM | – | 1.06
E28 [6], 111.1 nM | – | 1.12
E28 [6], 333.3 nM | – | 0.97
E28 [6], 1000 nM | – | 0.76
E28 [6], 3000 nM | – | 0.954
E28 [13], 4.1 nM | 0.822 | –
E28 [13], 12.3 nM | 0.591 | –
E28 [13], 37 nM | 0.96 | –
E28 [13], 111.1 nM | 0.701 | –
E28 [13], 333.3 nM | 0.922 | –
E28 [13], 1000 nM | 0.762 | –
E28 [13], 3000 nM | 1.1 | –
E31 [7], 4.1 nM | – | 0.736
E31 [7], 12.3 nM | – | 1.04
E31 [7], 37 nM | – | 0.782
E31 [7], 111.1 nM | – | 1.15
E31 [7], 333.3 nM | – | 0.725
E31 [7], 1000 nM | – | 0.982
E31 [7], 3000 nM | – | 0.787
E31 [14], 4.1 nM | 1.23 | –
E31 [14], 12.3 nM | 0.821 | –
E31 [14], 37 nM | 0.938 | –
E31 [14], 111.1 nM | 0.814 | –
E31 [14], 333.3 nM | 0.763 | –
E31 [14], 1000 nM | 0.973 | –
E31 [14], 3000 nM | 0.756 | –
E34 [5], 4.1 nM | – | 0.86
E34 [5], 12.3 nM | – | 1
E34 [5], 37 nM | – | 1.04
E34 [5], 111.1 nM | – | 0.92
E34 [5], 333.3 nM | – | 1.03
E34 [5], 1000 nM | – | 0.959
E34 [5], 3000 nM | – | 1.01
E34 [12], 4.1 nM | 0.63 | –
E34 [12], 12.3 nM | 0.803 | –
E34 [12], 37 nM | 0.845 | –
E34 [12], 111.1 nM | 0.69 | –
E34 [12], 333.3 nM | 0.689 | –
E34 [12], 1000 nM | 0.829 | –
E34 [12], 3000 nM | 1.45 | –
E57 [1], 4.1 nM | – | 1.04
E57 [1], 12.3 nM | – | 1.02
E57 [1], 37 nM | – | 0.958
E57 [1], 111.1 nM | – | 0.992
E57 [1], 333.3 nM | – | 1.01
E57 [1], 1000 nM | – | 0.99
E57 [1], 3000 nM | – | 0.867
E57 [8], 4.1 nM | 0.916 | –
E57 [8], 12.3 nM | 0.612 | –
E57 [8], 37 nM | 0.986 | –
E57 [8], 111.1 nM | 1.62 | –
E57 [8], 333.3 nM | 0.906 | –
E57 [8], 1000 nM | 1.14 | –
E57 [8], 3000 nM | 1.5 | –
FT3469 [3], 4.1 nM | – | 0.845
FT3469 [3], 12.3 nM | – | 1.33
FT3469 [3], 37 nM | – | 0.987
FT3469 [3], 111.1 nM | – | 0.845
FT3469 [3], 333.3 nM | – | 1.18
FT3469 [3], 1000 nM | – | 0.86
FT3469 [3], 3000 nM | – | 1.07
FT3469 [10], 4.1 nM | 0.962 | –
FT3469 [10], 12.3 nM | 1.15 | –
FT3469 [10], 37 nM | 0.953 | –
FT3469 [10], 111.1 nM | 0.541 | –
FT3469 [10], 333.3 nM | 1.76 | –
FT3469 [10], 1000 nM | 0.62 | –
FT3469 [10], 3000 nM | 0.72 | –
